Experimental data reported in patent publication US20240025907A1, “QUINAZOLINE PAN-KRas INHIBITORS” (Mirati Therapeutics, Inc., priority 2022, published 2024).
Where two headings read alike, the source gives them in different places.

Assays:
[1] = system: KRas-mediated Phosphorylation of ERK in H460 cells; assay: Cisbio HTRF pERK assay, H460 cells; type: cell-based; conditions: H460 cells, 3 hrs compound, read-out: Inhibition (HTRF IC50 nM) of KRas-mediated Phosphorylation of ERK, H460
[2] = system: KRas-mediated Phosphorylation of ERK in H2009 cells; assay: Cisbio HTRF pERK assay, H2009 cells; type: cell-based; conditions: read-out: Inhibition (HTRF IC50 nM) of KRas-mediated Phosphorylation of ERK, H2009
[3] = system: KRas-mediated Phosphorylation of ERK in H358 cells; assay: Cisbio HTRF pERK assay, H358 cells; type: cell-based; conditions: H358 cells, 3 hrs compound, read-out: Inhibition (HTRF IC50 nM) of KRas-mediated Phosphorylation of ERK, H358
[4] = system: KRas-mediated Phosphorylation of ERK in HCT116 cells; assay: Cisbio HTRF pERK assay, HCT116 cells; type: cell-based; conditions: HCT116 cells, 3 hrs compound, read-out: Inhibition (HTRF IC50 nM) of KRas-mediated Phosphorylation of ERK, HCT116
[5] = system: KRas-mediated Phosphorylation of ERK in H727 cells; assay: Cisbio HTRF pERK assay, H727 cells; type: cell-based; conditions: 3 hrs compound, read-out: Inhibition (HTRF IC50 nM) of KRas-mediated Phosphorylation of ERK, H727
[6] = system: KRas-mediated Phosphorylation of ERK in PSN1 cells; assay: Cisbio HTRF pERK assay, PSN1 cells; type: cell-based; conditions: 3 hour compound, read-out: Inhibition (HTRF IC50 nM) of KRas-mediated Phosphorylation of ERK, PSN1
Procedure: (§1) Inhibition of KRas Phosphorylation of ERK (HTRF) by Exemplary Compounds of Formula (I) • Cisbio HTRF Advanced pERK Assay Catalog #64AERPEH • Cell: MKN1, PSN1 • Procedure: • Day 1: Seed 6,000 cells/well −25 μl/well in 384-well white solid bottom plate; RPM1_10% FBS.

[7] = system: KRas-mediated Phosphorylation of ERK in MKN1 cells; assay: Cisbio HTRF pERK assay, MKN1 cells; type: cell-based; conditions: Homo sapiens, MKN-1, 3 hour compound, read-out: Inhibition (HTRF IC50 nM) of KRas-mediated Phosphorylation of ERK, MKN1
Procedure: as §1

[8] = system: KRas-mediated Phosphorylation of ERK in A549 cells; assay: Cisbio HTRF pERK assay, A549 cells; type: cell-based; conditions: A549 cells, 3 hrs compound, read-out: Inhibition (HTRF IC50 nM) of KRas-mediated Phosphorylation of ERK, A549
[9] = system: KRas-mediated Phosphorylation of ERK in AsPC-1 cells; assay: Cisbio HTRF pERK assay, AsPC-1 cells; type: cell-based; conditions: 3 hrs compound, read-out: Inhibition (HTRF IC50 nM) of KRas-mediated Phosphorylation of ERK, AsPC-1
KRas^G12D = biological target: T1, KRas^G12D (Homo sapiens, UniProt P01116, G12D); assay: KRas TR-FRET tracer displacement binding assay, G12D; conditions: 60-minute incubation
T1 construct: Biotinylated KRas (corresponding to amino acids 1-169, produced at Accelegan Inc.); biotin (biotinylated); purchased Accelegan Inc
T1 sequence (P01116 1-169 isoform P01116-2 G12D): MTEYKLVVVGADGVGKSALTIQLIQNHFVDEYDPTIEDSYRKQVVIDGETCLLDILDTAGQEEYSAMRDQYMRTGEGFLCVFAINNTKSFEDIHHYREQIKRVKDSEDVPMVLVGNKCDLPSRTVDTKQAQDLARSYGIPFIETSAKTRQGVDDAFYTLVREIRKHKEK
Procedure: (§2) KRas^WT, KRas^G12A, KRas^G12C, KRas^G12D, KRas^G12R, KRas^G12S, KRas^G12V, KRas^G13D, or KRas^Q61H was used in the assay.
(§3) The ability of a compound to bind to KRas was measured using a TR-FRET displacement assay. Biotinylated KRas (corresponding to amino acids 1-169, produced at Accelegan Inc.) was incubated with custom made Cy5 labelled tracer, terbium streptavidin (Cisbio Inc.) and compound (1% DMSO final) in buffer (50 mM HEPES, pH 7.5, 5 mM MgCl2, 0.005% Tween-20 and 1 mM DTT). After a 60-minute incubation at room temperature, the reaction was measured using a BMG LABTECH CLARIO star Plus via TR-FRET.

KRas^G12C = biological target: T2, KRas^G12C (Homo sapiens, UniProt P01116, G12C); assay: KRas TR-FRET tracer displacement binding assay, G12C; conditions: 60-minute incubation
T2 construct: Biotinylated KRas (corresponding to amino acids 1-169, produced at Accelegan Inc.); biotin (biotinylated); purchased Accelegan Inc
T2 sequence (P01116 1-169 isoform P01116-2 G12C): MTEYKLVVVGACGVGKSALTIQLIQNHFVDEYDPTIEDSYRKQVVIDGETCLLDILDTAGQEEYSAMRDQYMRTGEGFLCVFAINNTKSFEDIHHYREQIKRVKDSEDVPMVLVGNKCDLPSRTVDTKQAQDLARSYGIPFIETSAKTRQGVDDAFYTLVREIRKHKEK
Procedure: as §2, §3

KRas^WT = biological target: T3, KRas^WT (Homo sapiens, UniProt P01116); assay: KRas TR-FRET tracer displacement binding assay, WT; conditions: 60-minute incubation
T3 construct: Biotinylated KRas (corresponding to amino acids 1-169, produced at Accelegan Inc.); biotin (biotinylated); purchased Accelegan Inc
T3 sequence (P01116 1-169 isoform P01116-2): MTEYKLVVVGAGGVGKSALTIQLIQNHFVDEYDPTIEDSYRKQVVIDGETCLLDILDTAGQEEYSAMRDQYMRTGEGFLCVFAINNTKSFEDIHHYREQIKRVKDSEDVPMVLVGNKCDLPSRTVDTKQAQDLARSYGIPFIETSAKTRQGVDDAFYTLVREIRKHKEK
Procedure: as §2, §3

KRas^G12S = biological target: T4, KRas^G12S (Homo sapiens, UniProt P01116, G12S); assay: KRas TR-FRET tracer displacement binding assay, G12S; conditions: 60-minute incubation
T4 construct: Biotinylated KRas (corresponding to amino acids 1-169, produced at Accelegan Inc.); biotin (biotinylated); purchased Accelegan Inc
T4 sequence (P01116 1-169 isoform P01116-2 G12S): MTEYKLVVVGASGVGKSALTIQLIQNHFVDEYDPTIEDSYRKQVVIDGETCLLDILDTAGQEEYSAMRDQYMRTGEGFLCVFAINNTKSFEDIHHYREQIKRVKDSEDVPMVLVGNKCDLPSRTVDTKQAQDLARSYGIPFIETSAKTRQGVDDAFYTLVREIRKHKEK
Procedure: as §2, §3

KRas^G12V = biological target: T5, KRas^G12V (Homo sapiens, UniProt P01116, G12V); assay: KRas TR-FRET tracer displacement binding assay, G12V; conditions: 60-minute incubation
T5 construct: Biotinylated KRas (corresponding to amino acids 1-169, produced at Accelegan Inc.); biotin (biotinylated); purchased Accelegan Inc
T5 sequence (P01116 1-169 isoform P01116-2 G12V): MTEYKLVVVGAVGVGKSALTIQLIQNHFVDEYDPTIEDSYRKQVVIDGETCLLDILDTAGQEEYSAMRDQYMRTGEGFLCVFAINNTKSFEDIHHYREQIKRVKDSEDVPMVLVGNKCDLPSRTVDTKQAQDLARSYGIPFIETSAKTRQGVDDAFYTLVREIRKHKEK
Procedure: as §2, §3

[10] = Homo sapiens, NCI-H2009, H2009 cells

| SMILES | IC50 ([1]; Homo sapiens, NCI-H460, 3 h) | IC50 [2, 10] | IC50 ([3]; Homo sapiens, NCI-H358, 3 h) | IC50 ([4]; Homo sapiens, HCT-116, 3 h) | IC50 [5] | IC50 ([6]; Homo sapiens, PSN1, 3 h) | IC50 [7] | IC50 ([8]; Homo sapiens, A549, 3 h) | IC50 [9] | IC50 [1] | IC50 (KRas^G12D) | IC50 [3] | IC50 [4] | IC50 (KRas^G12C) | IC50 (KRas^WT) | IC50 (KRas^G12S) | IC50 (KRas^G12V) | IC50 [8] | IC50 ([5]; Homo sapiens, NCI-H727, 3 h) | IC50 ([9]; Homo sapiens, ASPC1, 3 h) | further results |
| --- | --- | --- | --- | --- | --- | --- | --- | --- | --- | --- | --- | --- | --- | --- | --- | --- | --- | --- | --- | --- | --- |
| C[C@@]1(O)COCCN(c2nc(OC[C@@]34CCCN3C[C@H](F)C4)nc3c(F)c(-c4ccc(F)c5sc(N)c(C#N)c45)c(Cl)cc23)C1 (atropisomer, axis not shown; (aS)) [Example 192, 2-amino-4-((R)-6-chloro-8-fluoro-2-(((2R,7aS)-2-fluorotetrahydro-1H-pyrrolizin-7a(5H)-yl)methoxy)-4-((S)-6-hydroxy-6-methyl-1,4-oxazepan-4-yl)quinazolin-7-yl)-7-fluorobenzo[b]thiophene-3-carbonitrile] | 4 nM | 1 nM | 1 nM | 12 nM | 5 nM | 260 nM | 1 nM | 8 nM | 3 nM | – | – | – | – | – | – | – | – | – | – | – | – |
| N#Cc1c(N)sc2c(F)ccc(-c3c(Cl)cc4c(N5CC6CCC(C5)N6)nc(OC[C@@]56CCCN5C/C(=C\F)C6)nc4c3F)c12 [Example 180, (R)-4-(4-((1R,5S)-3,8-diazabicyclo[3.2.1]octan-3-yl)-6-chloro-8-fluoro-2-(((S,Z)-2-(fluoromethylene)tetrahydro-1H-pyrrolizin-7a(5H)-yl)methoxy)quinazolin-7-yl)-2-amino-7-fluorobenzo[b]thiophene-3-carbonitrile] | – | 40 nM | – | – | 512 nM | 1370 nM | 10 nM | – | 1 nM | 81 nM | – | 54 nM | 72 nM | – | – | – | – | 139 nM | – | – | – |
| N#Cc1c(N)sc2c(F)ccc(-c3c(Cl)cc4c(N5CCC5CO)nc(OC[C@@]56CCCN5C[C@H](F)C6)nc4c3F)c12 (stereo partly drawn) [Example 209, 2-amino-4-(6-chloro-8-fluoro-2-(((2R,7aS)-2-fluorotetrahydro-1H-pyrrolizin-7a(5H)-yl)methoxy)-4-(2-(hydroxymethyl)azetidin-1-yl)quinazolin-7-yl)-7-fluorobenzo[b]thiophene-3-carbonitrile] | 47 nM | 15 nM | 9 nM | 83 nM | – | 1690 nM | – | 68 nM | – | – | 7 nM | – | – | 4 nM | 2 nM | 2 nM | < 2 nM | – | 27 nM | 93 nM | – |
| N#Cc1c(N)sc2c(F)ccc(-c3c(Cl)cc4c(N5CCCCCC5)nc(OC[C@@]56CCCN5C[C@H](F)C6)nc4c3F)c12 [Example 210, 2-amino-4-(4-(azepan-1-yl)-6-chloro-8-fluoro-2-(((2R,7aS)-2-fluorotetrahydro-1H-pyrrolizin-7a(5H)-yl)methoxy)quinazolin-7-yl)-7-fluorobenzo[b]thiophene-3-carbonitrile] | 25 nM | 5 nM | 10 nM | 54 nM | – | 1190 nM | – | 38 nM | – | – | – | – | – | – | – | – | – | – | 22 nM | 21 nM | – |

Now from value to compound, other results behind:

| IC50 ([1]; Homo sapiens, NCI-H460, 3 h) | IC50 [2, 10] | IC50 ([3]; Homo sapiens, NCI-H358, 3 h) | IC50 ([4]; Homo sapiens, HCT-116, 3 h) | IC50 [5] | IC50 ([6]; Homo sapiens, PSN1, 3 h) | IC50 [7] | IC50 ([8]; Homo sapiens, A549, 3 h) | IC50 [9] | IC50 [1] | IC50 (KRas^G12D) | IC50 [3] | IC50 [4] | IC50 (KRas^G12C) | IC50 (KRas^WT) | IC50 (KRas^G12S) | IC50 (KRas^G12V) | IC50 [8] | IC50 ([5]; Homo sapiens, NCI-H727, 3 h) | IC50 ([9]; Homo sapiens, ASPC1, 3 h) | SMILES | further results |
| --- | --- | --- | --- | --- | --- | --- | --- | --- | --- | --- | --- | --- | --- | --- | --- | --- | --- | --- | --- | --- | --- |
| – | – | – | – | 111 nM | – | – | – | 794 nM | 182 nM | 34 nM | 15 nM | 841 nM | < 2 nM | 11 nM | 3 nM | 3 nM | 111 nM | – | – | Cc1c(F)c(N)nc(-c2c(Cl)cc3c(NC(C)c4cccnc4N)nc(OC[C@@]45CCCN4C[C@H](F)C5)nc3c2F)c1C(F)(F)F (single isomer, unassigned; isomer 1) [Example 172] | IC50 ([2]; H2009 cells): 8 nM; IC50 [6]: 4290 nM |
| – | – | – | – | 252 nM | – | – | – | 1890 nM | 511 nM | 661 nM | 95 nM | 2900 nM | 454 nM | 751 nM | 331 nM | 430 nM | 244 nM | – | – | Cc1c(F)c(N)nc(-c2c(Cl)cc3c(NC(C)c4cccnc4N)nc(OC[C@@]45CCCN4C[C@H](F)C5)nc3c2F)c1C(F)(F)F (single isomer, unassigned; isomer 2) [Example 173] | IC50 ([2]; H2009 cells): 40 nM; IC50 [6]: > 10000 nM |
| 5060 nM | 4690 nM | 982 nM | > 10000 nM | – | > 10000 nM | 739 nM | > 10000 nM | – | – | – | – | – | – | – | – | – | – | > 10000 nM | > 10000 nM | N#Cc1c(N)sc2c(F)ccc(-c3c(F)cc4c(NCc5cn[nH]c5)nc(OC[C@@]56CCCN5C[C@H](F)C6)nc4c3F)c12 [Example 214, 4-(4-(((1H-pyrazol-4-yl)methyl)amino)-6,8-difluoro-2-(((2R,7aS)-2-fluorotetrahydro-1H-pyrrolizin-7a(5H)-yl)methoxy)quinazolin-7-yl)-2-amino-7-fluorobenzo[b]thiophene-3-carbonitrile] | – |
| 365 nM | 80 nM | 57 nM | 566 nM | – | 5110 nM | – | 720 nM | – | – | – | – | – | – | – | – | – | – | 429 nM | 1650 nM | N#Cc1c(N)sc2c(F)ccc(-c3c(Cl)cc4c(NC5CS(=O)(=O)C5)nc(OC[C@@]56CCCN5C[C@H](F)C6)nc4c3F)c12 [Example 218, 2-amino-4-(6-chloro-4-((1,1-dioxidothietan-3-yl)amino)-8-fluoro-2-(((2R,7aS)-2-fluorotetrahydro-1H-pyrrolizin-7a(5H)-yl)methoxy)quinazolin-7-yl)-7-fluorobenzo[b]thiophene-3-carbonitrile] | – |
| 1120 nM | 508 nM | 370 nM | 2250 nM | – | > 10000 nM | 266 nM | 3340 nM | – | – | – | – | – | – | – | – | – | – | 1070 nM | 2900 nM | N#Cc1c(N)sc2c(F)ccc(-c3c(Cl)cc4c(N5CC(O)C5)nc(OC[C@@]56CCCN5C[C@H](F)C6)nc4c3F)c12 [Example 219, 2-amino-4-(6-chloro-8-fluoro-2-(((2R,7aS)-2-fluorotetrahydro-1H-pyrrolizin-7a(5H)-yl)methoxy)-4-(3-hydroxyazetidin-1-yl)quinazolin-7-yl)-7-fluorobenzo[b]thiophene-3-carbonitrile] | – |
